Test results reported in US11135320B2, “Radioligands for pretargeted pet imaging and methods of their therapeutic use” (priority 2015, dated 2021).

Tests used:
[1] = mouse, in vivo; cited from earlier work
[2] = pretargeting, 24 h interval; Zeglis 2013; cited from earlier work
[3] = In vivo stability of ^64Cu-Tz-SarAr (intact fraction in blood); design: species or system athymic nude mice
Experimental: Healthy athymic nude mice were injected with ^64Cu-Tz-SarAr (300-350 μCi) via intravenous tail vein injection. After 15 min, 1 h, or 4 h, the mice were sacrificed via CO2 asphyxiation, and their blood (500 μL) was collected via cardiac puncture in heparinized 1.7 mL microcentrifuge tubes. These tubes were then centrifuged at 10,000 rpm for 10 minutes to separate plasma from red-blood cells. After 10 minutes, the plasma supernatant was then transferred to a new 1.7 mL microcentrifuge tube and placed on ice. Subsequently, 500 μL of ice-cold CH3CN was added to the plasma to precipitate the proteins, and the tubes were vortexed briefly and centrifuged again for 10 min at 10,000 rpm. After this centrifugation, the supernatant was carefully removed and transferred to another 1.7 mL microcentrifuge tube, in which it was subjected to another round of centrifugation at 10,000 rpm for 10 min. After this final centrifugation, the supernatant was again transferred to a clean 1.7 mL microcentrifuge tube. This solution was then analyzed via radio-TLC methods using reverse-phase C18 TLC plates and a mobile phase of 1:1 CH3CN:water (each with 0.1% TFA). Using this method, any free ^64Cu^2+ will remain at the baseline, while ^64Cu-Tz-SarAr and other metabolites will travel up the TLC plate. The fraction of intact ^64Cu-Tz-SarAr was calculated by dividing the integral of the parent compound peak over the integral of the entire radio-TLC chromatogram. All experiments were performed in triplicate.

[4] = tested on: subcutaneous SW1222 xenografts; test: Pretargeted PET imaging, control experiments; assay type: in vivo, athymic nude mice
Experimental: Due to its pharmacokinetic profile, ^64Cu-Tz-SarAr was selected for in vivo pretargeting experiments. To this end, athymic nude mice bearing A33 antigen-expressing SW1222 human colorectal carcinoma tumors were first injected with huA33-TCO (100 μg). After a 24 h interval during which huA33-TCO accumulated at the tumor and cleared from the blood, the mice were injected with ^64Cu-Tz-SarAr (400-450 μCi). The specific activity of the radiotracer was adjusted using cold ^natCu-Tz-SarAr such that the molar ratio of Tz-SarAr:huA33-TCO≈1:1. […] At 1 h post-injection, the activity concentration in the tumor (5.63±0.67% ID/g) was the highest of all tissues surveyed, while the blood (4.2±0.8% ID/g) and kidneys (3.1±0.3% ID/g) were the healthy organs with the highest background activity concentrations. […]
All pretargeted PET imaging experiments were performed on an Inveon PET/CT scanner (Siemens Healthcare Global). […] Static scans were recorded at various time points after injection with a minimum of 30 million coincident events (10-30 min total scan time). […] Activity concentrations (percentage of dose per gram of tissue [% ID/g]) and maximum intensity projections were determined by conversion of the counting rates from the reconstructed images. All of the resulting PET images were analyzed using ASIPro VM™ software. […]

Structure (SMILES): O=C([O-])CN1CCN(CC(=O)[O-])CC(Cc2ccc(NC(=O)CCCC(=O)NCc3ccc(-c4nncnn4)cc3)cc2)N(CC(=O)[O-])CC1.[64Cu+2] (centres unmarked) [^64Cu-Tz-NOTA]
- t1/2 of clearance through the intestinal tract [1]: ~4 h
- Adrenals absorbed dose [2]: 0.0251 rad/mCi
- Bladder Wall absorbed dose [2]: 0.0262 rad/mCi
- Brain absorbed dose [2]: 0.0236 rad/mCi
- Breasts absorbed dose [2]: 0.0209 rad/mCi
- Effective Dose [2]: 0.046 rem/mCi
- Gallbladder Wall absorbed dose [2]: 0.0272 rad/mCi
- Heart Wall absorbed dose [2]: 0.0294 rad/mCi
- Kidneys absorbed dose [2]: 0.0315 rad/mCi
- Liver absorbed dose [2]: 0.0311 rad/mCi
- Lower Lg. Int. Wall absorbed dose [2]: 0.166 rad/mCi
- Lungs absorbed dose [2]: 0.0289 rad/mCi
- Muscle absorbed dose [2]: 0.0138 rad/mCi
- Osteogenic Cells absorbed dose [2]: 0.0852 rad/mCi
- Ovaries absorbed dose [2]: 0.0299 rad/mCi
- Pancreas absorbed dose [2]: 0.0258 rad/mCi
- Red Marrow absorbed dose [2]: 0.0530 rad/mCi
- Skin absorbed dose [2]: 0.0194 rad/mCi
- Small Intestine absorbed dose [2]: 0.033 rad/mCi
- Spleen absorbed dose [2]: 0.0180 rad/mCi
- Stomach Wall absorbed dose [2]: 0.0267 rad/mCi
- Testes absorbed dose [2]: 0.0225 rad/mCi
- Thymus absorbed dose [2]: 0.0227 rad/mCi
- Thyroid absorbed dose [2]: 0.0228 rad/mCi
- Total Body absorbed dose [2]: 0.0272 rad/mCi
- Upper Lg. Int. Wall absorbed dose [2]: 0.114 rad/mCi
- Uterus absorbed dose [2]: 0.0277 rad/mCi

Structure (SMILES): NC12CNCCNCC(NCc3ccc(CNC(=O)CCCC(=O)NCc4ccc(-c5nncnn5)cc4)cc3)(CNCCNC1)CNCCNC2.[64Cu+2] [^64Cu-Tz-SarAr]
- % Intact in blood ([3]; 15 min post-injection): 96.8±0.8%
- % Intact in blood ([3]; 1 h post-injection): 82.0±3.3%
- % Intact in blood ([3]; 4 h post-injection): 29.0±5.9%
- uptake by the tumor (control PET imaging) ([4]; ^64Cu-Tz-SarAr alone, no antibody): less than 0.5 % ID/g
- uptake by the tumor (control PET imaging) ([4]; ^64Cu-Tz-SarAr with unmodified huA33): less than 0.5 % ID/g
